From US8557790B2, “A3 adenoside receptor agonists for the reduction of intraocular pressure” (Can-Fite Biopharma Ltd., priority 2009, dated 2013)
Entries after “also recorded” stand apart in the source; their conditions may differ.

System: patients with moderate-to-severe Keratoconjunctivitis Sicca (KCS)
Test: Phase 2 randomized, double-masked, placebo-controlled clinical study of oral IB-MECA; IOP measured at baseline and week 12
Assay type: in vivo, human
Protocol: A clinical study was conducted in patients with dry eye symptoms. The patients received an oral administration of IB-MECA at a dose of 1 mg or placebo, twice daily.
This study was a Phase 2, randomized, double-masked, placebo-controlled, parallel-group study in adult males and females, aged 18 years and over, with a diagnosis of moderate-to-severe Keratoconjunctivitis Sicca (KCS). Patients were randomized to receive either IB-MECA 1 mg or matching placebo, given orally, twice daily, for 12 weeks. A Screening Period of up to 4 weeks that includes a 2-week run-in period preceded a 12-week treatment period, followed by a 2-week follow-up period.
Some patients received either the IB-MECA capsules or a matching placebo and others received the IB-MECA tablets or a matching placebo.
Eligible patients to be included in the study were adult males or females, aged 18 years and over, with a diagnosis of moderate-to-severe KCS as defined by: • (1) at least 1 of the following ocular symptoms scored at ≧2, where 0=none and 4=very severe/interferes with normal activities: photophobia, blurred vision, foreign body sensation, soreness or pain, itching, burning, dryness; AND • (2) ST (without anesthesia)<7 mm/5 min in either eye; AND • (3) Positive FS, defined as a corneal punctuate fluorescein staining score of ≧1 in either eye, where 0=none and 3=severe. Use of topical ocular treatments was banned during the course of the study other than unreserved artificial tears (REFRESH) up to 8 times/day for the duration of the trial. Also banned was periocular cosmetic application. (c) Patients' Exclusion Criteria
Patients were excluded from the study if they had Sjögren's Syndrome with significant systemic non-exocrine gland involvement, Stevens-Johnson Syndrome, post-burn ocular injury, or chronic ocular disease other than KCS requiring topical treatment. Excluded were also patients being administered topical cyclosporine eye drops or systemic cyclosporine within 3 months prior to the Screening Visit; disease-modifying drugs, including methotrexate and biological agents, whose dose has been changed within 3 months prior to the Screening Visit or was expected to change during the trial; oral corticosteroids>10 mg prednisone, or equivalent, per day; or topical steroids within 2 weeks prior to the Screening Visit and for the duration of the study. […]

[1] = baseline to week 12, 1 mg orally twice daily, N=35

CNC(=O)[C@H]1O[C@@H](n2cnc3c(NCc4cccc(I)c4)ncnc32)[C@H](O)[C@@H]1O [IB-MECA, N^6-(3-iodobenzyl)-adenosine-5′-N-methyluronamide]
IOP % change, Mean [1]: −6.07%
IOP change, Mean [1]: −1.14
decrease in IOP (% change) (baseline to week 12, versus 1.95% in the placebo group, p<0.05): 6.07%
IOP week 12, Mean (end of 12 weeks treatment, 1 mg orally twice daily, N=35): 13.00
effect on IOP (in words) (human subjects, oral 1 mg twice daily, tested subjects in general and patients with elevated IOP in particular): decreasing IOP; also recorded: lowering of intraocular pressure; also recorded: much more pronounce decrease in IOP than the placebo group
effect on dry eye symptoms (in words) (patients with dry eye symptoms, oral 1 mg twice daily): amelioration of some of the dry eye symptoms
IOP at baseline, Mean (prior to first treatment, KCS patients, capsules and tablets pooled, N=35): 14.14
